Data taken from article PMC11391541, “Target-Directed Dynamic Combinatorial Chemistry Affords Binders of Mycobacterium tuberculosis IspE” (ACS Omega, 2024).
Values after ≈ are worked out from the molar mass of the structure shown. Values joined by “and” are separate entries in the source; they are usually repeats but may differ in a detail not shown here. Equal entries are not always repeated.

Legend:
MtbIspE [1] = target: T1, MtbIspE (Mycobacterium tuberculosis, UniProt P9WKG7); assay: MtbIspE binding study via thermal shift assay; conditions: read-out: MtbIspE ΔTm at 20 μM
[2] = solubility in M. tuberculosis 7H9 growth medium; assay type: physicochemical; conditions: M. tuberculosis 7H9 growth medium, plasma or biological fluid, kinetic from dmso stock; Mtb 7H9 growth medium
Experimental: Prior to biological evaluation of the tdDCC hits, we tested their solubility in a standard buffer as well as in M. tuberculosis 7H9 growth medium. […] Regrettably, with 3.3 μM the least soluble compound is E1, making our most amplified and promising compound unsuitable for biological evaluation. We assessed the solubility in Mtb growth medium given that it is a complex, nutrient-rich environment with a distinct solubility profile. However, the trend continued, only seven hits are soluble at 8 μM or above, the remaining five compounds, including E1, were not eligible for antitubercular activity testing (Table 1).
Determination of in vitro anti-tubercular activity and solubility in 7H9 medium Anti-tubercular tests were performed as previously described .1 In brief, 7H9 complete medium (BD Difco; Becton Dickinson, Maryland,USA) supplemented with 10% OADC (BD), 0.2% glycerol, and 0.05% Tween80 as previously described ,3 was used to culture Mycobacterium tuberculosis (Mtb) strain H37Rv (ATCC 25618) carrying a mCherry -expressing plasmid (pCherry10 ).4 Cultures were harvested at mid-log phase and frozen in aliquots at – 80 °C. Prior to testing aliquots were thawed followed by centrifugation and the pellet was resuspended in 7H9 medium with 10% OADC (without glycerol and Tween80). This was further thoroughly resuspended by passing it through a syringe with a 26 -gauge needle to avoid clumping of the bacteria. 2×10^5 CFU (colony forming units) were then cultured in a total volume of 100 μl culture medium (triplicates) to test the non-precipitating compounds for the anti-tubercular activity at the concentrations indicated. For these assays, 96-well flat clear bottom black polystyrene microplates (Corning® CellBIND®, Merck, New York, USA) wer e used. Each plate had Rifampicin (at 1 μg/ml and 0.1 μg/ml) (National Reference Center, Borstel) as a reference compound. Plates were sealed with an air -permeable membrane (Porvair Sciences, Wrexham, UK) in a 37 °C incubator with mild agitation (TiMix5, Edmund Bühler, Germany). The activity of compounds was determined after 7 days by measuring the bacterial growth as relative light units (RLU) from the fluorescence intensity obtained at an excitation wavelength of 575 nm and an emission wavelength of 635 n m in a microplate reader (Synergy 2, BioTek Instruments, Vermont, USA). Two independent experiments (each in triplicates) were performed, and all values were normalized to untreated control sample (100%) in each experiment.
To obtain information regarding the toxicity of our compounds, their impact on the viability of human cells was investigated. HepG2 cells (2x10^4 cells per well) were seeded in 96 -well, flat-bottomed culture plates in 100 µL culture medium (DMEM containing 10% fetal calve serum, 1% penicillin -streptomycin). Twenty-four hours after seeding the cells, medium was removed and replaced by medium containing test compounds in a final DMSO concentration of 1%. Compounds were tested in duplicates at a single concentration or, for CC50 determination, at 8 concentrations that were prepared via 2 -fold serial dilutions in 1% DMSO/medium. Epirubicin and doxorubicin were used as positive controls in serial dilutions starting from 10 µM, and rifampicin was used as a negative control (at 100 µM). The living cell mass was determined 48 h after treatment with compounds by adding 0.1 volumes of 3 -(4,5-dimethylthiazol-2-yl)-2,5-diphenyltetrazolium bromide (MTT) solution (5 mg/mL sterile PBS) (Sigma, St. Louis, MO) to the wells. After incubating the cells for 30 min at 37 °C (atmosphere containing 5% CO2), medium was removed and MTT crystals were dissolved in 75 µL of a solution containing 10% SDS and 0.5% acetic acid in DMSO. The optical density (OD) of the samples was determined photometrically at 570 nm in a PHERAstar Omega plate reader (BMG labtech, Ortenberg, Germany). To obtain percent viability for each sample, their ODs were related to those of DMSO controls. […]

MtbIspE [3] = target: T1, MtbIspE; assay: MtbIspE binding study via MicroScale Thermophoresis (MST); conditions: for MtbIspE binding at 20 μM: MST, 20 μM ligand, 200 nM MtbIspE, triplicate, qualitative
physchem = conditions: aqueous with cosolvent or surfactant or cyclodextrin, kinetic from dmso stock, solubility 5% DMSO in PBS
EcK12 = assay: E. coli growth inhibition, wild-type strain K12; assay type: cell-based, Escherichia coli; conditions: 18 h, LB medium; for inhibition at 50 µM: Escherichia coli, read-out: EcK12 %inh. At 50 μM
fungi = tested on: fungi; set-up: method as in PMID 25943854; conditions: cited from earlier work

T1 sequence (P9WKG7 whole entry): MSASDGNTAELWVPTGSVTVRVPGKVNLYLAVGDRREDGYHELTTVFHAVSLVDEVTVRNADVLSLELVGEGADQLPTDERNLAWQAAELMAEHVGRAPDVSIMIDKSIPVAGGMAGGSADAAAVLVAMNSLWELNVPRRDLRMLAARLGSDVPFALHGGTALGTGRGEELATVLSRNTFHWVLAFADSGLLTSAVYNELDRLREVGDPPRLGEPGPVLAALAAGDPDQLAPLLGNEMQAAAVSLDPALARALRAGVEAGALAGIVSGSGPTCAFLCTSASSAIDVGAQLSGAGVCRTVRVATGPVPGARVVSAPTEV

Compound	ΔTm at 20 µM (MtbIspE [1]) [°C]	solubility [2] [µM]	MtbIspE binding at 20 μM (MtbIspE [3])	solubility at 5 min (physchem) [µM]	inhibition at 50 µM (EcK12) [%]	antifungal properties (fungi)	MtbIspE binding in saturation MST experiment (MtbIspE [3]; saturation MST experiment)	EcK12 %inh. At 50 μM (EcK12)
COc1ccc(-c2cc(/C=N/NC(=O)c3cc(CC(C)C)n[nH]3)no2)cc1 [D6, (E)-3-Isobutyl-N′-((5-(4-methoxyphenyl)isoxazol-3-yl)methylene)-1H-pyrazole-5-carbohydrazide]	< 0.3	16	No	20 ± 10 (≈ 7.35 µg/mL)	< 10			
O=C(N/N=C/c1cc(Cl)ccc1O)c1ccncc1 [L1, (E)-N′-(5-Chloro-2-hydroxybenzylidene)isonicotinohydrazide]	< 0.3	16	did not bind and No	108 ± 3 (≈ 29.8 µg/mL)	18 ± 6	antifungal properties	no binding	appreciable effect
O=C(N/N=C/c1ccc(C(F)(F)F)cc1)c1cccc(Cl)c1 [K4, (E)-3-Chloro-N′-(4-(trifluoromethyl)benzylidene)benzohydrazide]	0.7	8	binding in only one measurement and 1/3	21 ± 6 (≈ 6.86 µg/mL)	12 ± 4			
